Measured values from PMC6256002 (British Journal of Clinical Pharmacology, 2018).
Like-named read-outs stand apart in the source and are kept apart here. Marks after values point to notes of the source that are not given here.

Legend:
[1] = cited from earlier work
[2] = for Ae0–24 h (amount excreted in the urine over 24 h) / AUC(0-t) / CL renal / half-life: arithmetic mean (CV%); for AUC(0-t): AUC0–24 h; for CL renal: CLR (renal clearance); for half-life: t½,λz (apparent terminal half-life)
[3] = Effect of renal impairment; conditions: for Ae0–24 h (amount excreted in the urine over 24 h) / AUC(0-t) / CL renal / tmax / half-life: 100 mg QD; for Ae0–24 h (amount excreted in the urine over 24 h) / AUC(0-t) / CL renal / half-life: arithmetic mean (CV%); for AUC(0-t) / CL renal / tmax / half-life: both, human, in vivo, 100 mg; for AUC(0-t): AUC0–24 h; for CL renal: CLR (renal clearance); for tmax: median (min–max); for half-life: t½,λz (apparent terminal half-life)
[4] = filgotinib 100 mg QD for 10 days
[5] = tested on: JAK1; conditions: in human whole blood; cited from earlier work
[6] = both, human, in vivo, 100 mg, 100 mg QD, day 10, age 40–50 years
[7] = both, human, in vivo, 100 mg, 100 mg QD, day 10, age 65–74 years
[8] = both, human, in vivo, 100 mg, 100 mg QD, day 10, age ≥75 years

Structure (SMILES): O=C(Nc1nc2cccc(-c3ccc(CN4CCS(=O)(=O)CC4)cc3)n2n1)C1CC1 [Filgotinib]
- Impact of food on bioavailability [1]: no impact
- Fraction excreted in the urine ([1]; in humans, filgotinib unchanged, metabolite as such, no reference given): < 10%
- Eliminated in urine (filgotinib and its metabolites) ([1]; no reference given): > 80%
- Ae0–24 h (amount excreted in the urine over 24 h) ([2]; 100 mg QD, day 10, age 40–50 years): 8.01 (26.5) ^b % dose
- Ae0–24 h (amount excreted in the urine over 24 h) ([2]; 100 mg QD, day 10, age 40–50 years, listed as filgotinib): 8.01 % dose
- Ae0–24 h (amount excreted in the urine over 24 h) ([2]; 100 mg QD, day 10, age 65–74 years): 6.55 (14.3) ^c % dose
- Ae0–24 h (amount excreted in the urine over 24 h) ([2]; 100 mg QD, day 10, age 65–74 years, listed as filgotinib): 6.55 % dose
- tmax ([2]; 100 mg QD, day 10, age 65–74 years, median (min–max)): 2.0 (0.5–3.0) h
- Ae0–24 h (amount excreted in the urine over 24 h) ([2]; 100 mg QD, day 10, age ≥75 years): 7.24 (16.9) ^b % dose
- Ae0–24 h (amount excreted in the urine over 24 h) ([2]; 100 mg QD, day 10, age ≥75 years, listed as filgotinib): 7.24 % dose
- tmax ([2]; 100 mg QD, day 10, age ≥75 years, median (min–max)): 2.0 (0.5–3.0) h
- tmax ([2]; both, human, in vivo, 100 mg): 2 h
- AUC(0-t) [2, 6]: 1600 ng·h/mL
- AUC(0-t) [2, 7]: 1790 ng·h/mL
- AUC(0-t) [2, 8]: 2220 ng·h/mL
- CL renal [2, 6]: 92.5 mL/min
- CL renal [2, 7]: 65 mL/min
- CL renal [2, 8]: 55.5 mL/min
- half-life [2, 6]: 6.07 h
- half-life [2, 7]: 5.83 h
- half-life [2, 8]: 6.9 h
- Time to steady state ([2]; predose (trough) concentrations, regardless of the age group): steady state by the second dosing day
- Fold-change in steady-state AUC0–24 h ([2]; ≥75 years relative to 40–50 years, point estimate [90% CI]): 1.40 fold
- Ae0–24 h (amount excreted in the urine over 24 h) ([3]; day 10, mild RI): 5.37 (42.1) % dose
- Ae0–24 h (amount excreted in the urine over 24 h) ([3]; day 10, moderate RI): 4.34 (51.2) % dose
- Ae0–24 h (amount excreted in the urine over 24 h) ([3]; day 10, normal renal function): 7.61 (35.4) % dose
- Ae0–24 h (amount excreted in the urine over 24 h) ([3]; day 10, severe RI): 2.08 (34) % dose
- Steady state in plasma reached by ([3]; all renal function groups): ≤ 2 days
- AUC(0-t) ([3]; day 10, mild RI): 1890 ng·h/mL
- AUC(0-t) ([3]; day 10, moderate RI): 2690 ng·h/mL
- AUC(0-t) ([3]; day 10, normal renal function): 1820 ng·h/mL
- AUC(0-t) ([3]; day 10, severe RI): 2640 ng·h/mL
- CL renal ([3]; day 10, mild RI): 49.2 mL/min
- CL renal ([3]; day 10, moderate RI): 31.5 mL/min
- CL renal ([3]; day 10, normal renal function): 74.2 mL/min
- CL renal ([3]; day 10, severe RI): 15 mL/min
- tmax ([3]; day 10, moderate RI): 0.6 h
- tmax ([3]; day 10, normal renal function): 0.8 h
- half-life ([3]; day 10, moderate RI): 10.6 h
- half-life ([3]; day 10, normal renal function): 5.42 h
- half-life ([3]; day 10, severe RI): 9.03 h
- Time after dosing at which Cmax was reached ([3]; day 10): 1 h
- CLR lower (drop) compared with subjects with normal renal function ([3]; severe RI vs normal renal function): 80%
- Safety and tolerability [4]: generally safe and well tolerated
- Selectivity for JAK1 over JAK2 [5]: 30 times
